Among the data in US11464770B2, “Anticancer pharmaceutical composition” (NATIONAL CANCER CENTER, priority 2016, dated 2022) are IC50 values, retold here.

Molecules are shown by their SMILES. Like-named read-outs stand apart in the source and are kept apart here. Some results are limits rather than exact numbers.

As a reminder, the IC50 is the concentration needed to halve the response being measured.

The assay deals with colorectal cancer cell lines (e.g. DLD-1, HCT 116, SW620, HCT-15, HCT-8, RKO). Put plainly: Cell based assay, cell viability (CellTiter-Glo), colorectal cancer cell lines. In short, it runs like this: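 Plated cells (24 h) → compound to 0–2 μM final → 72 h → CellTiter-Glo ATP luminescence.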
Setting [1] is: Homo sapiens, DLD-1 cells, 72 hours treatment, read-out: IC50, colorectal cancer cell line DLD-1.
[2] abbreviates: Homo sapiens, HCT 116 cells, 72 hours treatment, read-out: IC50, colorectal cancer cell line HCT 116.
Setting [3] is: Homo sapiens, HCT-8 cells, 72 hours treatment, read-out: IC50, colorectal cancer cell line HCT-8.
Where [4] appears, read: Homo sapiens, HCT-15 cells, 72 hours treatment, read-out: IC50, colorectal cancer cell line HCT-15.
The mark [5] stands for this setting: Homo sapiens, HT-29 cells, 72 hours treatment, read-out: IC50, colorectal cancer cell line HT-29.
Setting [6] is: Homo sapiens, LoVo cells, 72 hours treatment, read-out: IC50, colorectal cancer cell line LoVo.
[7] abbreviates: Homo sapiens, RKO cells, 72 hours treatment, read-out: IC50, colorectal cancer cell line RKO.
Where [8] appears, read: Homo sapiens, SW480 cells, 72 hours treatment, read-out: IC50, colorectal cancer cell line SW480.
The mark [9] stands for this setting: Homo sapiens, SW-620, SW620 cells, 72 hours treatment, read-out: IC50, colorectal cancer cell line SW620.
Setting [10] is: Homo sapiens, DLD-1, 72 hours treatment, read-out: IC50, colorectal cancer cell line DLD-1.
Setting [11] is: Homo sapiens, HCT 116, 72 hours treatment, read-out: IC50, colorectal cancer cell line HCT 116.
Where [12] appears, read: Homo sapiens, HCT-8, 72 hours treatment, read-out: IC50, colorectal cancer cell line HCT-8.
Where [13] appears, read: Homo sapiens, HCT-15, 72 hours treatment, read-out: IC50, colorectal cancer cell line HCT-15.
Setting [14] is: Homo sapiens, HT-29, 72 hours treatment, read-out: IC50, colorectal cancer cell line HT-29.
Where [15] appears, read: Homo sapiens, LoVo, 72 hours treatment, read-out: IC50, colorectal cancer cell line LoVo.
Where [16] appears, read: Homo sapiens, SW480, 72 hours treatment, read-out: IC50, colorectal cancer cell line SW480.
The mark [17] stands for this setting: Homo sapiens, SW-620, SW620, 72 hours treatment, read-out: IC50, colorectal cancer cell line SW620.
Where [18] appears, read: RKO, 72 hours treatment, read-out: IC50, colorectal cancer cell line RKO.

Take `COc1cccc2[nH]c([S+]([O-])Cc3cc(C)on3)c(C(C)=O)c(=O)c12` (stereo not drawn) [Compound 94, 3-acetyl-5-methoxy-2-(((5-methylisoxazol-3-yl)methyl)sulfinyl)quinolin-4(1H)-one]: the IC50 is > 2000 nM under setting [1]; > 2000 nM under setting [2]; > 2000 nM under setting [3]; > 2000 nM under setting [4]; > 10000 nM under setting [5]; > 2000 nM under setting [6]. Further, the IC50 is, setting by setting: under setting [7], > 2000 nM; under setting [8], > 2000 nM; under setting [9], > 2000 nM.

As for `CC(=O)c1c([S+]([O-])Cc2cccc(C#N)c2)[nH]c2c(Br)ccc(Cl)c2c1=O` (stereo not drawn) [Compound 28, 3-(((3-acetyl-8-bromo-5-chloro-4-oxo-1,4-dihydroquinolin-2-yl)sulfinyl)methyl)benzonitrile], the IC50 under setting [10] worked out at 940 nM; the IC50 under setting [11] stood at 960 nM; the IC50 under setting [12] was 1300 nM; the IC50 under setting [13] came out at 1060 nM; the IC50 under setting [14] was > 10000 nM; the IC50 under setting [15] stood at 1900 nM. Moreover, the IC50 under setting [16] was determined as 1220 nM, the IC50 under setting [17] came out at 1090 nM and the IC50 under setting [18] is 1090 nM.

In the case of `CC(=O)c1c([S+]([O-])Cc2ccc(NS(C)(=O)=O)cc2)[nH]c2c(Br)ccc(Cl)c2c1=O` (stereo not drawn) [Compound 103, N-(4-(((3-acetyl-8-bromo-5-chloro-4-oxo-1,4-dihydroquinolin-2-yl)sulfinyl)methyl)phenyl)methane-sulfonamide], the IC50 is > 2000 nM under setting [1]; > 2000 nM under setting [2]; > 2000 nM under setting [3]; > 2000 nM under setting [4]; > 10000 nM under setting [5]; > 2000 nM under setting [6]. The IC50 was > 2000 nM under setting [7], > 2000 nM under setting [8] and > 2000 nM under setting [9].

With `COCSc1[nH]c2c(Br)ccc(Cl)c2c(=O)c1C(C)=O` [Compound 61, 3-acetyl-8-bromo-5-chloro-2-((methoxymethyl)thio)quinolin-4(1H)-one], the IC50 reads like this: under setting [10], > 2000 nM; under setting [11], > 2000 nM; under setting [12], > 2000 nM; under setting [13], > 2000 nM; under setting [14], > 10000 nM; under setting [15], > 2000 nM. The IC50 by setting is: under setting [16], > 2000 nM; under setting [17], > 2000 nM; under setting [18], > 2000 nM.

Regarding `CC(=O)c1c([S+]([O-])Cc2ccc(Cl)cc2)[nH]c2c(Br)ccc(Cl)c2c1=O` (stereo not drawn) [Compound 11, 3-acetyl-8-bromo-5-chloro-2-((4-chlorobenzyl)sulfinyl)quinolin-4(1H)-one], the 50% inhibitory concentration (IC50) reads like this: under setting [10], 820 nM; under setting [11], > 2000 nM; under setting [12], > 2000 nM; under setting [13], > 2000 nM; under setting [14], > 10000 nM; under setting [15], > 2000 nM. Moreover, the IC50 under setting [16] was > 2000 nM, the IC50 under setting [17] was > 2000 nM and the IC50 under setting [18] was > 2000 nM.

In the case of `CC(=O)c1c(S)[nH]c2c(Br)ccc(Cl)c2c1=O` [Compound 62, 3-acetyl-8-bromo-5-chloro-2-mercaptoquinolin-4(1H)-one], the IC50 by setting is: under setting [10], > 2000 nM; under setting [11], > 2000 nM; under setting [12], > 2000 nM; under setting [13], > 2000 nM; under setting [14], > 10000 nM; under setting [15], > 2000 nM. Further, the IC50 was > 2000 nM under setting [16], > 2000 nM under setting [17] and > 2000 nM under setting [18].

Turning to `COc1cccc2[nH]c([S+]([O-])Cc3ccc(S(F)(F)(F)(F)F)cc3)c(C(C)=O)c(=O)c12` (stereo not drawn) [Compound 93, 3-acetyl-5-methoxy-2-((4-(pentafluoro--sulfanyl)benzyl)sulfinyl)quinolin-4(1H)-one], the IC50 under setting [1] is > 2000 nM; the IC50 under setting [2] was > 2000 nM; the IC50 under setting [3] is > 2000 nM; the IC50 under setting [4] is > 2000 nM; the IC50 under setting [5] is > 10000 nM; the IC50 under setting [6] is > 2000 nM. The IC50 by setting is: under setting [7], > 2000 nM; under setting [8], > 2000 nM; under setting [9], > 2000 nM.

On to `CC(=O)c1c(S(C)(=O)=O)n(C(=O)c2ccc(Br)cc2)c2c(Br)ccc(Cl)c2c1=O` [Compound 21, 3-acetyl-8-bromo-1-(4-bromobenzoyl)-5-chloro-2-(methylsulfonyl)quinolin-4(1H)-one], for which the IC50 was > 2000 nM under setting [10]; > 2000 nM under setting [11]; > 2000 nM under setting [12]; > 2000 nM under setting [13]; > 10000 nM under setting [14]; > 2000 nM under setting [15]. Besides, the IC50 was > 2000 nM under setting [16], > 2000 nM under setting [17] and > 2000 nM under setting [18].

Regarding `CC(=O)c1c(SCC#N)[nH]c2c(Br)ccc(Cl)c2c1=O` [Compound 66, 2-((3-acetyl-8-bromo-5-chloro-4-oxo-1,4-dihydroquinolin-2-yl)thio)acetonitrile], the IC50 under setting [10] is > 2000 nM; the IC50 under setting [11] is > 2000 nM; the half-maximal inhibitory concentration (IC50) under setting [12] was > 2000 nM; the IC50 under setting [13] is > 2000 nM; the IC50 under setting [14] is > 10000 nM; the IC50 under setting [15] is > 2000 nM. In addition, the IC50 under setting [16] was > 2000 nM, the IC50 under setting [17] is > 2000 nM and the IC50 under setting [18] is > 2000 nM.

In the case of `CC(=O)c1c(Sc2ccc(Br)cc2)[nH]c2c(Br)ccc(Cl)c2c1=O` [Compound 16, 3-acetyl-8-bromo-2-((4-bromophenyl)thio)-5-chloroquinolin-4(1H)-one], the IC50 is > 2000 nM under setting [10]; > 2000 nM under setting [11]; > 2000 nM under setting [12]; > 2000 nM under setting [13]; > 10000 nM under setting [14]; > 2000 nM under setting [15]. Also, the IC50 is > 2000 nM under setting [16], > 2000 nM under setting [17] and > 2000 nM under setting [18].
